Results on six compounds are retold here after the supplement of paper PMC12076712.

What all share (test): pIC50, kinobeads binding competition
For one test, the target named is TESK2 (UniProt Q96S53). In outline: (§1)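 Fold changes relative to vehicle, from biological duplicates, were fitted with logistic dose-response models in the R drc package to give pIC50. These fold changes came from TMT10 LC-MS/MS quantification of digested Kinobeads-bound proteins. Compound was applied at nine concentrations (top 30 μM) either to live Jurkat cells in 1:4 steps for 60 min at 37 °C before lysis, or to Jurkat lysate or a 1:1:1:1 HEK293/K-562/HepG2/placenta lysate mix in 1:5 steps for 60 min at 4 °C.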
Sequence of TESK2 (Q96S53 whole entry, looked up): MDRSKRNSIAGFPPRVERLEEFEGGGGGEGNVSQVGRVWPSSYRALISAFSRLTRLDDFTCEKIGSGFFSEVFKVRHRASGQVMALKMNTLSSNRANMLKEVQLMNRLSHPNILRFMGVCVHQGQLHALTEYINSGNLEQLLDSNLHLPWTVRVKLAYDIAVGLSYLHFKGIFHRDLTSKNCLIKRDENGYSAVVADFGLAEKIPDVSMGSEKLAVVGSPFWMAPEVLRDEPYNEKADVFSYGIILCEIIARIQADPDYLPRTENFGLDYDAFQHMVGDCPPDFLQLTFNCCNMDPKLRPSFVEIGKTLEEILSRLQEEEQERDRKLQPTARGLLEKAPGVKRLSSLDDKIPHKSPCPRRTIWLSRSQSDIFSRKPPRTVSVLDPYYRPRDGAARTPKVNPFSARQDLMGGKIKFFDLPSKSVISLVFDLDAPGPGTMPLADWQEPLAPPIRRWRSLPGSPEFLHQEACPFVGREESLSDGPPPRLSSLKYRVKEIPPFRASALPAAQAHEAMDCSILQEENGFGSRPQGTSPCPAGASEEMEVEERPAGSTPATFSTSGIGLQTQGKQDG

For another test, the target named is UniProt Q9BVS4. Put shortly: as §1
Sequence of UniProt Q9BVS4 (Q9BVS4 whole entry, looked up): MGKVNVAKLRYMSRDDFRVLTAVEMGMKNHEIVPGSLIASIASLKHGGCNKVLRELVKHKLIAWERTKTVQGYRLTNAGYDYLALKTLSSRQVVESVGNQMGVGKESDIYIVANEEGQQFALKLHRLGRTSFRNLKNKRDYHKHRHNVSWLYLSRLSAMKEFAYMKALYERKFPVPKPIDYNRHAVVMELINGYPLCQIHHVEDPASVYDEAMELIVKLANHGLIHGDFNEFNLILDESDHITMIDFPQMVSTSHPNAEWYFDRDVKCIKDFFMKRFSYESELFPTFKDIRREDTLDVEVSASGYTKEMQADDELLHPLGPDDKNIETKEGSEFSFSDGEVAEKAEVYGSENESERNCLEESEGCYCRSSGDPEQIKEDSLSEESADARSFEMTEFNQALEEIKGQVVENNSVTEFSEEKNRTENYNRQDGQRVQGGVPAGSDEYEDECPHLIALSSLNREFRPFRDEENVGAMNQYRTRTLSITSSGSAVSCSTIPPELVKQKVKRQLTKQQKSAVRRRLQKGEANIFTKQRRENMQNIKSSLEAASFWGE
For the next test, the target named is UniProt Q00536. In outline: as §1
Sequence of UniProt Q00536 (Q00536 whole entry): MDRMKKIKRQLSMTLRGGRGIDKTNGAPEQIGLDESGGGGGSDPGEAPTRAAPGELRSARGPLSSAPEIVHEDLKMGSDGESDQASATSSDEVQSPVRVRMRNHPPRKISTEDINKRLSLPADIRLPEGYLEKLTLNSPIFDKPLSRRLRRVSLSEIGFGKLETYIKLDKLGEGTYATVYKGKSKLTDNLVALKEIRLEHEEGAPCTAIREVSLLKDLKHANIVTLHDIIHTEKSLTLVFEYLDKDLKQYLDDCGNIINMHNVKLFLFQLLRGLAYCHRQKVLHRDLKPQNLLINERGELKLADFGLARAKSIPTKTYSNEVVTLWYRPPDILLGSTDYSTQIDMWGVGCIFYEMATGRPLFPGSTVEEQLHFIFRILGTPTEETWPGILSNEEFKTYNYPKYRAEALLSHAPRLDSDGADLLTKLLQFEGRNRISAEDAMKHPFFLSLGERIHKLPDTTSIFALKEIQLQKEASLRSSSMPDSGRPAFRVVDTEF
Another test concerns the target TESK1 (UniProt Q15569). Put shortly: as §1
The next test concerns the target T1, UniProt Q13163.
T1 sequence (whole entry): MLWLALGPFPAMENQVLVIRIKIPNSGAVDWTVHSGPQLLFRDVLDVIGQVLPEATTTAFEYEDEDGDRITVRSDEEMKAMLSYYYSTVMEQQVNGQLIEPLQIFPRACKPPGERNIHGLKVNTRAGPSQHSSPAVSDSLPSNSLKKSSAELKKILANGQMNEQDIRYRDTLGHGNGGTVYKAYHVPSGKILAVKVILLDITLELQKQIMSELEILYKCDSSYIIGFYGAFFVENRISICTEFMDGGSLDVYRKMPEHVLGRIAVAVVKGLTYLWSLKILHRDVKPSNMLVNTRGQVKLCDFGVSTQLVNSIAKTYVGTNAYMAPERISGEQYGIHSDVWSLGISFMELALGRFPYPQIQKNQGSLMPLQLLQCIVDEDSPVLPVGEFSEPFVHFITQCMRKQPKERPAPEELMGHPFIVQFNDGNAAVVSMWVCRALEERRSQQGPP
In outline:
as §1

A further test deals with Jak2 (UniProt O60674). Put shortly:
as §1

The next test addresses PCTK3 (UniProt Q07002). Put shortly:
as §1

For the next test, the target named is DDR1 (UniProt Q08345). Put shortly:
as §1

The target in another test is UniProt P35968. Conditions: cell material: Lysate mix. In outline:
as §1

Another test has as its target T2, UniProt Q8TF76.
T2 sequence (whole entry): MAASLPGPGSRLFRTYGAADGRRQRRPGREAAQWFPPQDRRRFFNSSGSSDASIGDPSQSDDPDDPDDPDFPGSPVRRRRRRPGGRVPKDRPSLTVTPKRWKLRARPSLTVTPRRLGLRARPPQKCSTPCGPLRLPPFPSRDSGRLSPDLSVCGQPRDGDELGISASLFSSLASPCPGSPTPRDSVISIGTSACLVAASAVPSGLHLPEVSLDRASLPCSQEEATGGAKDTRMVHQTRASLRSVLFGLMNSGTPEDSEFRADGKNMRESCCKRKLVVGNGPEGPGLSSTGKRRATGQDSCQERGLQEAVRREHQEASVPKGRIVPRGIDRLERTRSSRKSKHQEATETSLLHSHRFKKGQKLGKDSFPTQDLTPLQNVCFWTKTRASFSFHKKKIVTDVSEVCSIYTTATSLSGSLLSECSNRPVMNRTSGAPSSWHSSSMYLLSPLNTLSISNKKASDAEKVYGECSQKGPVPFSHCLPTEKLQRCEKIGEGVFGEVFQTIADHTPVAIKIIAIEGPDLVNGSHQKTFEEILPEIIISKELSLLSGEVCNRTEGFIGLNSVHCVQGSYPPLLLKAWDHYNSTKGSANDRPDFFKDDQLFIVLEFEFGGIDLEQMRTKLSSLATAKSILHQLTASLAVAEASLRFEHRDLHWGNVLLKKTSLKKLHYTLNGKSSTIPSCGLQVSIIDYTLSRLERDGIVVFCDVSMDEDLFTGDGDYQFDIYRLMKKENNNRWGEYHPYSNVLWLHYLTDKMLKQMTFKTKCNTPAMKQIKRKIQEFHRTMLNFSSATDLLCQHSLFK
In outline: as §1

The next test deals with T3, EPHB3 (UniProt P54753).
T3 sequence (whole entry): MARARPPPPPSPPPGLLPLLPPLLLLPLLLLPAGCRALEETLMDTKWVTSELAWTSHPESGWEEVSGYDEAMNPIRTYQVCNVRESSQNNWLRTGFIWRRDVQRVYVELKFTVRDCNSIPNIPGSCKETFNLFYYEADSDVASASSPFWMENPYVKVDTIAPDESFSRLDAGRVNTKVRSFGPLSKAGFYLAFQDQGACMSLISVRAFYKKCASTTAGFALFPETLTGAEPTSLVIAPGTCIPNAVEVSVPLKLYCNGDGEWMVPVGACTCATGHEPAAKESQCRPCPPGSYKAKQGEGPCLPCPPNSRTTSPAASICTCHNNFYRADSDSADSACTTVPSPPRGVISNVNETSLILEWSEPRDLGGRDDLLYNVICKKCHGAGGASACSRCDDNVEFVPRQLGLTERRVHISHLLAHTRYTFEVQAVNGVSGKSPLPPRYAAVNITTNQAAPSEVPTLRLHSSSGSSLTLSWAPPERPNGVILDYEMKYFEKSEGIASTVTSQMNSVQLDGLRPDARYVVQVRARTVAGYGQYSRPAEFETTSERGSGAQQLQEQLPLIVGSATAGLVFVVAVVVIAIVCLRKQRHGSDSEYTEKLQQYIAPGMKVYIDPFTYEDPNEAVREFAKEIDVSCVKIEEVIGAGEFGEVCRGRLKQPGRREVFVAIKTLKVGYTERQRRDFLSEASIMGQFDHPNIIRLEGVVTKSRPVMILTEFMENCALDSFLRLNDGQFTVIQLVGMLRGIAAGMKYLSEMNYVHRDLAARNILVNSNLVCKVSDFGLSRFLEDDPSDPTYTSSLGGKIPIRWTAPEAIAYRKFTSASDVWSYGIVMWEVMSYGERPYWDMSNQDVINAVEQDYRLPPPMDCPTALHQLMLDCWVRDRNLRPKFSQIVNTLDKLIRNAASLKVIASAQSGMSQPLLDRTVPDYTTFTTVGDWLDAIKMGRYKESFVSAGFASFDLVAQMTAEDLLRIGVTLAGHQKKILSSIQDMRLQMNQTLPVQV
As to conditions: cell material: Lysate mix. In outline: as §1

Sequence of UniProt P35968 (P35968 whole entry): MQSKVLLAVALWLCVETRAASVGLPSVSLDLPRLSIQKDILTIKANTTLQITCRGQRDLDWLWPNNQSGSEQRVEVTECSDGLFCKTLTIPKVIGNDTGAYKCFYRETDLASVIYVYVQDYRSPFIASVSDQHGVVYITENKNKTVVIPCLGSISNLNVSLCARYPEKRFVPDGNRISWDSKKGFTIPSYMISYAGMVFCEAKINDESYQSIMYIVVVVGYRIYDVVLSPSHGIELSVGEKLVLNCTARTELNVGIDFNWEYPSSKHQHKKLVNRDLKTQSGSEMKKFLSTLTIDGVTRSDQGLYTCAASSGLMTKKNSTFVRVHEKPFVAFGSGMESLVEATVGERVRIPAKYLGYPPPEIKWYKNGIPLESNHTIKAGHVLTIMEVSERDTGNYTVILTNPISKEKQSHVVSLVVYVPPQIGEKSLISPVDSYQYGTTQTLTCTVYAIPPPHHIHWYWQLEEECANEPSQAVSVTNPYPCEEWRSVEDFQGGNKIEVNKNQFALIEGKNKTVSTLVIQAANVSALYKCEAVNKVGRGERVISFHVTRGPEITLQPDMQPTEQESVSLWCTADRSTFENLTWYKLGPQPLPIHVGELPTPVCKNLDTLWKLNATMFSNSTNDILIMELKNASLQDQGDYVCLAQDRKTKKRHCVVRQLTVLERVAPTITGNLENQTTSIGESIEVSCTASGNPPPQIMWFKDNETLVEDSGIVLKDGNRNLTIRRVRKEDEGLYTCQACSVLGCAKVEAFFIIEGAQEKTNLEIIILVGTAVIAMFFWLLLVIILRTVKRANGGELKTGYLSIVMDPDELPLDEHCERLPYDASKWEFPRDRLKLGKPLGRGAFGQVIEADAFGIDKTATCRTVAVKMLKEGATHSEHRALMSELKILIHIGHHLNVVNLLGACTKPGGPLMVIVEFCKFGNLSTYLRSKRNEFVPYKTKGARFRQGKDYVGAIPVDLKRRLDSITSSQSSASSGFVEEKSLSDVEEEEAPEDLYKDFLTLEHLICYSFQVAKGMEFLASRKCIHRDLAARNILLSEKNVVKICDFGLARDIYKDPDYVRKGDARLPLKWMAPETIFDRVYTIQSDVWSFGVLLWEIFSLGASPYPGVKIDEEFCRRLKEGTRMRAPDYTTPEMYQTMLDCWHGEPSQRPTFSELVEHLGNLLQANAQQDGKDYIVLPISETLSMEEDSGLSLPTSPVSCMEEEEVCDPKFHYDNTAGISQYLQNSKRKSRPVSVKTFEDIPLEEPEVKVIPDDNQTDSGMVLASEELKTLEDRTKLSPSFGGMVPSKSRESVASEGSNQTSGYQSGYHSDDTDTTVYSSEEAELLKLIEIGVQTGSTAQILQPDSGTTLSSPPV
Sequence of Jak2 (O60674 whole entry): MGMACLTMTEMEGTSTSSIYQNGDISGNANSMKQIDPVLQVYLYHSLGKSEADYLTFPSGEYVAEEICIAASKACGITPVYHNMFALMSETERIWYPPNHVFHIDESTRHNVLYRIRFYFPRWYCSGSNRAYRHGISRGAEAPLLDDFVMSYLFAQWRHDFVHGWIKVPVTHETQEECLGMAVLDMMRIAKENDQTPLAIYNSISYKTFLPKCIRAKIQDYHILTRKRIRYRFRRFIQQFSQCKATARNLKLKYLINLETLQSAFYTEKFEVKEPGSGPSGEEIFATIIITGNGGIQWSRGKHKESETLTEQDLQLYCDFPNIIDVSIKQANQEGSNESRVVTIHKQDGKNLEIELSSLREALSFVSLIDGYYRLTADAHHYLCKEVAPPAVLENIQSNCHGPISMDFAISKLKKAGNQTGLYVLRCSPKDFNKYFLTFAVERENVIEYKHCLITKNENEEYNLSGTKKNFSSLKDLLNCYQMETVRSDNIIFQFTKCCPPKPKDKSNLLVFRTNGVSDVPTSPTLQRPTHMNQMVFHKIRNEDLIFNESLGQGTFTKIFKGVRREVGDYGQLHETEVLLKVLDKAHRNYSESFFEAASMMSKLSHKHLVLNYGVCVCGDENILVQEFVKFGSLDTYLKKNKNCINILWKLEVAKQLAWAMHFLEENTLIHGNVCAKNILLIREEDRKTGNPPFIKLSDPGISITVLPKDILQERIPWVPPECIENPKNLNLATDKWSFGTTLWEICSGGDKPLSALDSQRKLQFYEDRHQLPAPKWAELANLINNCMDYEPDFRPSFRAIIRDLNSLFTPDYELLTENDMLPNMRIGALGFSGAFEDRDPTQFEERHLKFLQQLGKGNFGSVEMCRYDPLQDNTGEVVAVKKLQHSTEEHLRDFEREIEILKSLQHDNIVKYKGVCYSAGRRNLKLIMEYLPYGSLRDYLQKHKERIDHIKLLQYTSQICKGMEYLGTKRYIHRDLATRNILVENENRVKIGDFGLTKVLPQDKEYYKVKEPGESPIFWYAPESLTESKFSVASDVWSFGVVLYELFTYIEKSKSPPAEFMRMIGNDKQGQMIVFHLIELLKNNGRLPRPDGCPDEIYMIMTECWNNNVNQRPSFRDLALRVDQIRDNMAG
Sequence of TESK1 (Q15569 whole entry, looked up): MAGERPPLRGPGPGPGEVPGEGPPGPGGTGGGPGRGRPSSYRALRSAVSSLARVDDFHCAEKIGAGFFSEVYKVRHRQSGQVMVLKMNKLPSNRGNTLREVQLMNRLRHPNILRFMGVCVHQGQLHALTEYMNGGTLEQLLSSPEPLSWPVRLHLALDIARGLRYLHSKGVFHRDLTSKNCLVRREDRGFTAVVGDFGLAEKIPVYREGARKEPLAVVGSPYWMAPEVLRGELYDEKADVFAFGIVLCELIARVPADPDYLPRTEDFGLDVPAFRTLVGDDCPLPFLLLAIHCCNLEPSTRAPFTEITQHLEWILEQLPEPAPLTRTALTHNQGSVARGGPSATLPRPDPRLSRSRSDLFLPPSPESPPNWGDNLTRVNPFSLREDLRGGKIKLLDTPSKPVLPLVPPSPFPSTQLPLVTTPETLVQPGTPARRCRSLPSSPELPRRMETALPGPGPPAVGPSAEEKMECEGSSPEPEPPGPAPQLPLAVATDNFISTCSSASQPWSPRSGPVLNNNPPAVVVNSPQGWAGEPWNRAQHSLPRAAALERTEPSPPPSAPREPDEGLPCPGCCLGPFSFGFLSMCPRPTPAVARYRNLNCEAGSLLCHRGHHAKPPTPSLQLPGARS

On to `Cc1cc(Nc2cc(C(=O)NCCNC(=O)OC3CC/C=C/CCC3)nc(N3CCN(Cc4ccc(S(=O)(=O)F)cc4)CC3)n2)n[nH]1` (stereo not drawn), for which the pIC50 on TESK2 (cell material: Lysate mix), on UniProt Q9BVS4 (cell material: Lysate mix), at UniProt Q00536 (cell material: Lysate mix), on TESK1 (cell material: Lysate mix), on UniProt Q13163 (cell material: Lysate mix) and on Jak2 (cell material: Lysate mix) was less than 4.52 each time. Also, the pIC50 at PCTK3 (cell material: Lysate mix), on DDR1 (cell material: Lysate mix), at UniProt P35968, on UniProt Q8TF76 (cell material: Lysate mix) and on EPHB3 was less than 4.52 each time.

In the case of `C#CCNC(=O)c1cc(Nc2cc(C3CC3)[nH]n2)nc(N2CCN(Cc3ccc(S(=O)(=O)F)cc3)CC2)n1`, the pIC50 at TESK2 (cell material: Jurkat cells) is less than 4.52; on TESK2 (cell material: Jurkat lysate), less than 4.52; at TESK2 (cell material: Lysate mix), less than 4.52; at UniProt Q9BVS4 (cell material: Jurkat cells), 5.12; on UniProt Q9BVS4 (cell material: Jurkat lysate), less than 4.52; on UniProt Q9BVS4 (cell material: Lysate mix) it was less than 4.52. In addition, the pIC50 at UniProt Q00536 (cell material: Jurkat cells) was 6.35; on UniProt Q00536 (cell material: Jurkat lysate), 5.01; on UniProt Q00536 (cell material: Lysate mix) it was 5.89; at TESK1 (cell material: Jurkat lysate) it was less than 4.52; on TESK1 (cell material: Lysate mix), less than 4.52; at UniProt Q13163 (cell material: Jurkat cells), 5.71. The pIC50 on UniProt Q13163 (cell material: Jurkat lysate) is 4.88; on UniProt Q13163 (cell material: Lysate mix) it was 5.42; at Jak2 (cell material: Jurkat lysate), less than 4.52; on Jak2 (cell material: Lysate mix), 4.9; on PCTK3 (cell material: Jurkat cells) it was 6.2; on PCTK3 (cell material: Jurkat lysate), less than 4.52. Besides, the pIC50 is 5.2 on PCTK3 (cell material: Lysate mix); 5.54 at DDR1 (cell material: Jurkat cells); less than 4.52 on DDR1 (cell material: Jurkat lysate); less than 4.52 on DDR1 (cell material: Lysate mix); less than 4.52 at UniProt P35968; 5.26 on UniProt Q8TF76 (cell material: Jurkat cells). Also, the pIC50 on UniProt Q8TF76 (cell material: Jurkat lysate), on UniProt Q8TF76 (cell material: Lysate mix) and at EPHB3 was less than 4.52 throughout.

`CCNC(=O)c1cc(Nc2cc(C3CC3)[nH]n2)nc(N2CCN(Cc3ccc(S(=O)(=O)F)cc3)CC2)n1`: the pIC50 at TESK2 (cell material: Lysate mix) was less than 4.52; at UniProt Q9BVS4 (cell material: Lysate mix), less than 4.52; at UniProt Q00536 (cell material: Lysate mix), 5.76; on TESK1 (cell material: Lysate mix), less than 4.52; at UniProt Q13163 (cell material: Lysate mix), 5.28; on Jak2 (cell material: Lysate mix) it was 4.73. Moreover, the pIC50 on PCTK3 (cell material: Lysate mix) is 5.36; on DDR1 (cell material: Lysate mix), less than 4.52; at UniProt P35968, less than 4.52; at UniProt Q8TF76 (cell material: Lysate mix) it was less than 4.52; at EPHB3, less than 4.52.

Turning to `C#CCNC(=O)c1cc(Nc2cc(C)[nH]n2)nc(N2CCN(Cc3ccc(S(=O)(=O)F)cc3)CC2)n1`, the pIC50 was less than 4.52 on TESK2 (cell material: Lysate mix); less than 4.52 on UniProt Q9BVS4 (cell material: Lysate mix); less than 4.52 on UniProt Q00536 (cell material: Lysate mix); less than 4.52 on TESK1 (cell material: Lysate mix); 4.64 at UniProt Q13163 (cell material: Lysate mix); 4.93 at Jak2 (cell material: Lysate mix). The pIC50 at PCTK3 (cell material: Lysate mix), at DDR1 (cell material: Lysate mix), at UniProt P35968, at UniProt Q8TF76 (cell material: Lysate mix) and on EPHB3 was less than 4.52 in each case.

Turning to `O=C(NCCNC(=O)c1cc(Nc2cc(C3CC3)[nH]n2)nc(N2CCN(Cc3ccc(S(=O)(=O)F)cc3)CC2)n1)OC1CC/C=C/CCC1` (stereo not drawn), the pIC50 at TESK2 (cell material: Jurkat lysate) was less than 4.52; on TESK2 (cell material: Lysate mix), less than 4.52; at UniProt Q9BVS4 (cell material: Jurkat cells), less than 4.52; at UniProt Q9BVS4 (cell material: Jurkat lysate), less than 4.52; on UniProt Q9BVS4 (cell material: Lysate mix), less than 4.52; on UniProt Q00536 (cell material: Jurkat cells), 5.85. Also, the negative-log IC50 (pIC50) on UniProt Q00536 (cell material: Jurkat lysate) is less than 4.52; at UniProt Q00536 (cell material: Lysate mix) it was less than 4.52; at TESK1 (cell material: Jurkat cells), less than 4.52; at TESK1 (cell material: Jurkat lysate), less than 4.52; at TESK1 (cell material: Lysate mix) it was less than 4.52; at UniProt Q13163 (cell material: Jurkat cells), 4.99. The pIC50 was less than 4.52 at UniProt Q13163 (cell material: Jurkat lysate); less than 4.52 at UniProt Q13163 (cell material: Lysate mix); less than 4.52 on Jak2 (cell material: Jurkat lysate); less than 4.52 on Jak2 (cell material: Lysate mix); 5.7 on PCTK3 (cell material: Jurkat cells); less than 4.52 at PCTK3 (cell material: Jurkat lysate). Also, the pIC50 at PCTK3 (cell material: Lysate mix), at DDR1 (cell material: Jurkat cells), on DDR1 (cell material: Jurkat lysate), at DDR1 (cell material: Lysate mix), on UniProt P35968 and at UniProt Q8TF76 (cell material: Jurkat cells) was less than 4.52 in each case. Besides, the pIC50 at UniProt Q8TF76 (cell material: Jurkat lysate), at UniProt Q8TF76 (cell material: Lysate mix) and on EPHB3 was less than 4.52 in each case.

On to `CCNC(=O)c1cc(Nc2cc(C)[nH]n2)nc(N2CCN(Cc3ccc(S(=O)(=O)F)cc3)CC2)n1`, for which the pIC50 at TESK2 (cell material: Lysate mix) is less than 4.52; on UniProt Q9BVS4 (cell material: Lysate mix) it was less than 4.52; on UniProt Q00536 (cell material: Lysate mix), 4.76; on TESK1 (cell material: Lysate mix) it was less than 4.52; at UniProt Q13163 (cell material: Lysate mix), 4.73; at Jak2 (cell material: Lysate mix), 4.98. Moreover, the pIC50 at PCTK3 (cell material: Lysate mix), at DDR1 (cell material: Lysate mix), on UniProt P35968, at UniProt Q8TF76 (cell material: Lysate mix) and at EPHB3 was less than 4.52 each time.

As a reminder, the pIC50 is the IC50 on a negative log10 scale, so that one unit is a factor of ten. Read a low pIC50 as a large IC50.
